# Patent publication US20150157584A1, “INHIBITORS OF HIPPO-YAP SIGNALING PATHWAY” (The Regents of the University of California, priority 2012, published 2015)
# Read-outs that look alike come from different tables or passages of the source. Residues, ends and D or L forms follow the SMILES beside them. *: point of attachment. Cbz = O=C(OCc1ccccc1)*
# Legend:
# YAP/TAZ [1] = assay: immunoblotting / phos-tag gels of YAP/TAZ phosphorylation in cultured cell lines; type: cell-based, human; details: for YAP phosphorylation by PDE inhibitors: MDA-MB-231, ibudilast 100 μM, IBMX 100 μM, rolipram 50 μM, theophylline 1 mM, 1 hr; for YAP/TAZ phosphorylation by BSA preparations: serum-starved HEK293A, 1 or 10 mg/ml BSA; for YAP/TAZ activation by growth factors: EGF 50 ng/ml, PDGF 50 ng/ml, insulin 200 nM, FGF 10 ng/ml
# Description: Immunoblotting was performed using standard protocol. […] The phos-tag reagents were purchased from Wako Chemicals, and gels containing phos-tag were prepared according to manufacture's instructions. YAP proteins can be separated into multiple bands in the presence of phos-tag depending on differential phosphorylation levels, with phosphorylated proteins run migrate slower.
# (§1) Immunoblotting was performed using standard protocol. Antibodies for pYAP (S127), YAP, TAZ (V386), pCREB, CREB, pMLC2 (S19), pMLC2 (T18/S19), MST1, MST2, and Lats1 were from Cell Signaling Technology. Lats2 antibody was from Bethyl laboratories. HA-HRP, GFP, and MLC2 antibodies were from Santa Cruz biotechnology. Tubulin, HSP90 and Flag-HRP were purchased from Sigma Aldrich. PKA antibody was obtained from BD biosciences. GAPDH antibody was a gift from Dr. Yan Luo. Yki antibody was a gift from Dr. Kenneth Irvine. The phos-tag reagents were purchased from Wako Chemicals, and gels containing phos-tag and MnC12 were prepared according to manufacturer's instructions. YAP proteins can be separated into multiple bands on phos-tag gels, with the phosphorylated form of YAP proteins migrating at a slower speed.
# YAP = type: cell-based, human
# YAP/TAZ [2] = assay: immunoblotting of YAP/TAZ phosphorylation in mouse cells (primary hepatocytes, 3T3-L1); type: cell-based
# Description: Immunoblotting was performed using standard protocol. Antibodies for pYAP (S127), pYAP(S381/384), pMST1/2, TAZ, pERK, ERK1/2, Lats1, MST1, pAKT (S473), pS6K, S6K were from Cell Signaling, antibodies for YAP (H-125), CTGF, Cyr61, Gq/11, G13 and 14-3-3θ were from Santa Cruz, TEAD1 antibody was from BD biosciences, pTAZ (S89) antibody was in-house raised, GAPDH antibody was a gift from Dr. Yan Luo. The phos-tag reagents were purchased from Wako Chemicals, and gels containing phos-tag were prepared according to manufacture's instructions. YAP proteins can be separated into multiple bands in the presence of phos-tag depending on differential phosphorylation levels, with phosphorylated proteins run migrate slower.
# as §1
# Lats1 = Lats1 immunoprecipitation kinase assay with GST-YAP substrate; type: cell-based, human; details: HEK293A; Ki16425 10 μM 30 min; C3 2 μg/ml 4 h
# Description: Lats1 or HA-Lats2 kinase assays were performed similarly but using GST-YAP as substrates in the absence of [γ-^32P] ATP. The phosphorylation of GST-YAP at S127 was determined by immunoblotting using pYAP antibody.
# Cells were lysed using mild lysis buffer (50 mM HEPES at pH 7.5, 150 mM NaCl, 1 mM EDTA, 1% NP-40, 10 mM pyrophosphate, 10 mM glycerophosphate, 50 mM NaF, 1.5 mM Na3VO4, protease inhibitor cocktail [Roche], 1 mM PMSF). Cell lysates were cleared and used for immunoprecipitation. Lats1 antibody (Cell Signaling Technology) was mixed with cell lysates for 1 hr at 4° C., and then protein A agarose beads were added in for 1 hr. After four washes with lysis buffer, beads were washed once with wash buffer (40 mM HEPES, 200 mM NaCl) and once with kinase assay buffer (30 mM HEPES, 50 mM potassium acetate, 5 mM MgCl2). The immunoprecipitated Lats1 was then subjected to a kinase assay in the presence of 500 μM cold ATP, 10 μCi [γ-32P] ATP, and 1 μg of GST-YAP expressed and purified from Escherichia coli as substrate. The reaction mixtures were incubated for 30 min at 30° C., terminated with SDS sample buffer, and subjected to SDS-PAGE and immunoblotting.
# [3] = HEK293A pre-treated 30 min (1 μM Torin1, 10 μM U0126, 10 μM SB253580, 10 nM wortmannin), then 10% FBS 1 h
compound,measurement,setting,value
CCC(=O)N1CCN(c2ccc(-n3c(=O)ccc4cnc5ccc(-c6cnc7ccccc7c6)cc5c43)cc2C(F)(F)F)CC1 [torin],effect on the ability of FBS to dephosphorylate YAP/TAZ,YAP/TAZ [1]; [3],no effect
CC(C)C[C@@H](C=O)NC(=O)[C@H](CC(C)C)NC(=O)[C@H](CC(C)C)NC(=O)OCc1ccccc1 [MG132] (Cbz-Leu-Leu-Leu-aldehyde),YAP protein levels under various doses of C108 with proteasome inhibitor,YAP,mostly maintained
O=C(Nc1ncnc2c1ncn2[C@@H]1O[C@@H]2COP(=O)(O)O[C@H]2[C@H]1O)c1ccccc1 [b-Bnz-cAMP],YAP phosphorylation by PKA or Epac selective activators,"YAP/TAZ [1]; HEK293A, 1 h",dramatically increased
glucagon: ligand known to activate PKA,YAP phosphorylation,"YAP/TAZ [2]; primary hepatocytes isolated from mice, glucagon",increased
same,YAP phosphorylation,"YAP/TAZ [2]; primary mouse hepatocytes, 2 μM glucagon, 1 h",increased
Cn1c(=O)c2[nH]cnc2n(C)c1=O [theophylline],YAP phosphorylation by PDE inhibitors,YAP/TAZ [1],induced YAP phosphorylation
Fraction V BSA: BSA prepared by ethanol precipitation,YAP/TAZ phosphorylation by BSA preparations,YAP/TAZ [1]; 1 h,no activity
COc1ccc(C2CNC(=O)C2)cc1OC1CCCC1 (centres unmarked) [rolipram],YAP phosphorylation by PDE inhibitors,YAP/TAZ [1],induced YAP phosphorylation
N#CC(=C(/N)Sc1ccccc1N)/C(C#N)=C(\N)Sc1ccccc1N [U0126],effect on the ability of FBS to dephosphorylate YAP/TAZ,YAP/TAZ [1],no effect
EGF: growth factor tested,YAP/TAZ activation by growth factors,YAP/TAZ [1]; HEK293A,not involved
PDGF,YAP/TAZ activation by growth factors,YAP/TAZ [1]; HEK293A,not involved
phosphatidic acid [PA],dephosphorylation of YAP/TAZ by phospholipids,"YAP/TAZ [1]; HEK293A, 100 μM lipid",strongly induced dephosphorylation
same,concentration needed to induce YAP dephosphorylation,"YAP/TAZ [1]; HEK293A, 1 h",100 µM
same,"YAP dephosphorylation, different doses","YAP/TAZ [1]; HEK293A, different doses of LPA, S1P, LPC or PA for 1 h",much higher concentrations
same,potency relative to LPA (times less potent),"YAP/TAZ [1]; YAP dephosphorylation, HEK293A","1,000 times"
C[S+]([O-])c1ccc(-c2nc(-c3ccc(F)cc3)c(-c3ccncc3)[nH]2)cc1 (centres unmarked) [SB253580],effect on the ability of FBS to dephosphorylate YAP/TAZ,YAP/TAZ [1]; [3],no effect
Oc1cc2c(cc1O)[C@H]1c3ccccc3CN[C@@H]1CC2 (racemic) [Dihydrexidine],YAP phosphorylation,"YAP/TAZ [1]; U2OS cells, 10 μM, 1 h",strong increase
COC[C@H]1OC(=O)c2coc3c2[C@@]1(C)C1=C(C3=O)[C@@H]2CCC(=O)[C@@]2(C)C[C@H]1OC(C)=O [wortmannin],effect on the ability of FBS to dephosphorylate YAP/TAZ,YAP/TAZ [1]; [3],no effect
C/C1=C/C(=O)O[C@@H]2C[C@@H](CC[C@H](C)/C=C\CC1)O[C@@](O)([C@@H]1CSC(=O)N1)C2 [latrunculin B],effect on the effects of LPA or S1P on YAP,"YAP/TAZ [1]; HEK293A 1 μg/ml LatB 30 min, MCF10A localization",blocked
Cc1noc(-c2ccc(CSCCC(=O)O)cc2)c1NC(=O)OC(C)c1ccccc1Cl (centres unmarked) [Ki16425],effect on LPA-induced dephosphorylation of YAP/TAZ,"YAP/TAZ [1]; HEK293A, Ki16425 10 μM, 30 min",blocked
same,effect on S1P-induced dephosphorylation of YAP/TAZ,"YAP/TAZ [1]; HEK293A, Ki16425 10 μM, 30 min",not
same,effect on the ability of serum to repress YAP/TAZ phosphorylation,"YAP/TAZ [1]; HEK293A, Ki16425 10 μM, particularly at 0.2% serum",partially inhibited
same,"effect on Lats1 inhibition by LPA, S1P, and serum",Lats1,effectively blocked
CO[C@@H]1[C@@H]2OP(=O)(O)OC[C@H]2O[C@H]1n1c(Sc2ccc(Cl)cc2)nc2c(N)ncnc21 [8-CPT-2′-O-Me-cAMP],YAP phosphorylation by PKA or Epac selective activators,"YAP/TAZ [1]; HEK293A, 1 h",less dramatic
insulin: growth factor tested,YAP/TAZ activation by growth factors,YAP/TAZ [1]; HEK293A,not involved
fatty acid-free BSA: fatty acid-free BSA preparation,YAP/TAZ phosphorylation by BSA preparations,YAP/TAZ [1]; 1 h,no activity
